{
  "source": "paper PMC11232398",
  "about": "“Antimalarial activity of cecropin antimicrobial peptides derived from Anopheles mosquitoes” (Antimicrobial Agents and Chemotherapy, 2024)",
  "key": {"[1]": {"tested_on": "P. falciparum 3D7 (sensitive strain)", "experiment": "In vitro antimalarial activity, 3-day inhibition assay", "type": "cell-based, Plasmodium falciparum", "description": "Blood stages of the laboratory clones P. falciparum 3D7 (sensitive strain), P. falciparum 803 (artemisinin-resistant strain), and P. falciparum Dd2 (chloroquine-resistant strain) were cultured in vitro according to the method of Trager and Jensens with minor modifications ([37]). Briefly, cultures were maintained in O-positive human erythrocytes (RBCs) as host cells at 2% hematocrit and maintained in complete medium (CM) [RPMI-1640 culture medium supplemented with NaHCO3 (2 mg/mL), hypoxanthine (50 µg/mL), HEPES (5.96 mg/mL), albumax II (1%), and gentamicin (40 µg/mL)]. The cultures were diluted to 1% parasitemia and 2% hematocrit in CM and incubated in a humidified atmosphere with 5% O2, 5% CO2, and 90% N2 at 37°C. Prior to experiments, the cultures were highly synchronized for ring stages using 5% sorbitol twice at a 40-h interval. Briefly, ring stage cultures were centrifuged and the pellet was washed once in incomplete medium (ICM, RPMI-1640 without addition). Then, the pellet was resuspended in 5% sorbitol and incubated at 37°C for 10 min. After incubation, the suspension was centrifuged and the pellet was washed once and resuspended in medium. The development of the parasite was observed using light microscopy, and parasitemia was determined by counting at least 10,000 RBCs on Giemsa’s solution-stained thin blood smears.\nHighly synchronous ring stage parasites were used to investigate the in vitro antimalarial activity of the peptides. For preliminary screening of in vitro antimalarial activity, a 3-day inhibition assay was used to test the antimalarial activity of An-cecA, An-cecB, and An-cecC. […] For IC50 assay, a series of concentrations of peptides were added to the parasite culture. The concentrations of An-cecB were 5, 15, 20, 25, 30, 35, and 40 µM, while those of An-cecB-1 were 20, 30, 40, 50, 60, 70, 80, and 90 µM. After 72 hours of incubation, the antimalarial effects of peptides were estimated. Thin blood films stained with Giemsa’s solution were counted under a microscope. The parasitemia of cultures treated with peptides was compared with that of control. IC50 was calculated by GraphPad Prism."}, "Bacillus subtilis (ATCC)": {"tested_on": "Bacillus subtilis (ATCC)", "experiment": "Antimicrobial assay, broth dilution", "type": "cell-based", "settings": "B. subtilis", "description": "(§1) Gram-positive bacteria S. aureus, B. subtilis, and Gram-negative E. coli were used in antimicrobial assays. Bacteria were first grown in LB (Luria-Bertani) broth to an absorbance of 0.8 at 600 nm. The antibacterial behavior of the peptides was studied via the agar disc diffusion assay and broth microdilution method ([41], [42]). The agar plates were made by pouring 20 mL of LB broth containing 1.5% agar into 60-mm Petri dishes. Then, a 100-µL bacterial suspension (10^6 CFU/mL) was spread over the LB agar plate. Ten microliters of the 2-mg/mL peptide sample was carefully dropped onto sterile 2-mm diameter paper discs that had been previously attached to the plate. The plates were carefully placed in an incubator at 37°C for 24 hours. If an examined sample had antimicrobial activity, a clear zone was observed around the filter paper representing inhibition of bacterial growth. The MIC was determined by the broth dilution method, and the absorbance value was measured at an optical density at 600 nm (OD600) to determine the inhibition rate of peptides at different concentrations against each bacteria. Then, the MIC at which no visible growth occurred was recorded ([38]). The MIC50 was calculated by GraphPad Prism."}, "[2]": {"tested_on": "Escherichia coli (ATCC 25922)", "experiment": "Antimicrobial assay, broth dilution", "type": "cell-based", "settings": "E. coli", "description": "as §1"}, "[3]": {"tested_on": "Staphylococcus aureus (ATCC 6538)", "experiment": "Antimicrobial assay, broth dilution", "type": "cell-based", "settings": "S. aureus", "description": "as §1"}, "[4]": {"tested_on": "methyl-β-cyclodextrin-treated RBCs", "experiment": "Hemolytic activity on cholesterol-depleted erythrocytes", "type": "cell-based, human", "settings": "RBCs treated with 7.5 mM methyl-β-cyclodextrin for 2 hours at 37°C", "text": "Cholesterol is the main component of the RBC membrane and is important for maintaining its stability ([39]). Plasmodium falciparum infection efficiently depletes the red blood cells of cholesterol, which renders […] membranes susceptible to lysis ([40]). Therefore, methyl-β-cyclodextrin treatment was used to simulate the RBC cholesterol depletion caused by infection with Plasmodium. RBCs were washed once and then resuspended with PBS at 0.5% hematocrit. After treatment with the indicated concentration (7.5 mM) of methyl-β-cyclodextrin (Sigma) in RPMI for 2 hours at 37°C, the treated RBCs were washed with PBS and hemolysis assays were performed as described above. Two independent tests with five technical replicates were performed for each hemolysis assay."}, "[5]": {"tested_on": "RBCs infected by schizonts of P. falciparum 3D7", "experiment": "Hemolytic activity on RBCs infected by schizonts", "type": "cell-based, human", "settings": "percoll-purified 3D7 schizonts, 2% hematocrit in PBS", "description": "To test the hemolytic activity of the peptides against RBCs infected by Plasmodium, schizonts of the P. falciparum 3D7 strain were collected. The parasite culture of mainly schizonts was centrifuged and resuspended to 50% hematocrit. Then, the resuspended culture was carefully laid on top of the gradient with 3 mL 70% and 3 mL 40% percoll-sorbitol solution. After centrifugation at 2,300 × g for 20 min at 20°C, schizonts from the 40/70% interface were collected and washed twice with 10× volume of ICM. The collected parasites were resuspended in PBS to 2% hematocrit for hemolysis assay as described above."}, "[6]": {"tested_on": "Plasmodium falciparum 3D7", "experiment": "Transmission electron microscope analysis of parasite morphology", "type": "cell-based", "settings": "TEM", "description": "3D7 strain parasites with parasitemia of 3% ~ 5% at a hematocrit of 2% were planted in 12-well plates, 3 mL/well. A 40-µM concentration of An-cecB or 200 µM An-cecB-1 was added and incubated for 30 min or 60 min. PBS was used as a control.\nAfter incubation, the parasites were washed three times with ICM, and the electron microscope fixative solution (provided by the company) was added to keep the parasites clumped for 2 hours at room temperature. Finally, the samples were sent to a commercial company at 4°C for transmission electron microscope analysis."}, "[7]": {"tested_on": "Plasmodium berghei (ANKA)", "type": "in vivo", "settings": "parasitemia on day 4, BALB/c mice", "description": "The in vivo antimalarial activity of peptides was evaluated using a 4-day suppressive test in P. berghei-infected mouse model mice ([44]). The mice were divided into five groups of six mice. Donor mice were infected with 200 µL of P. berghei parasite inoculum by intraperitoneal injection. Parasitized blood was collected from the tail vein of donor mice and diluted with 0.9% sodium chloride solution. Mice were then infected with saline suspension of 1 × 10^7 parasitized erythrocytes (0.2 mL) by intraperitoneal injection (Day0). Four hours after infection, each of the three groups of mice was treated with peptide by intraperitoneal injection at daily doses of 10, 25, and 50 mg/kg for 4 consecutive days. Positive control mice were treated with chloroquine at daily doses of 10 mg/kg and negative control mice with normal saline. On day 4 (96 hours post infection), the parasitemia of each mouse was determined under a light microscope by examination of Giemsa’s solution-stained thin blood smears prepared from mouse tail blood ([28]). The mean parasitemia in each group of mice was used to calculate the % suppression for each dose using the following formula:\n%suppression = (parasitemia of negative control − parasitemia of test) * 100/parasitemia of negative control.\nThe antimalarial activity of the peptides was determined from the ratio of the percentage of parasite reduction in treated and negative control groups ([44]). Results were expressed as median (range) values."}, "[8]": {"settings": "200 µM peptide, 3D7, Giemsa smears"}, "[9]": {"settings": "40 µM An-cecB or 200 µM An-cecB-1, total 20 / 22"}, "[10]": {"settings": "50 µM peptide, 72 h, ring stage, 1% parasitemia, 2% hematocrit, Giemsa smears"}},
  "note": "pIC50: −log10 of the molar value. Read-outs that look alike come from different tables or passages of the source.",
  "data": [
    {"substance": "APRWKFGKRLEKLGRNVF-NH2 [An-cecB-1]", "values": [
      {"measurement": "inhibition rate", "setting": "[1]; [8]", "result": 83.67, "unit": "%"},
      {"measurement": "pIC50", "setting": "[1]; 3D7, 72 h incubation, Giemsa smears, GraphPad Prism, two independent assays, three technical replicates", "result": 4.16},
      {"measurement": "MIC", "setting": "Bacillus subtilis (ATCC); OD600", "result": 25, "unit": "µM"},
      {"measurement": "MIC50", "setting": "Bacillus subtilis (ATCC); OD600, GraphPad Prism", "result": 18.94, "unit": "µM"},
      {"measurement": "MIC", "setting": "[2]; OD600", "result": 25, "unit": "µM"},
      {"measurement": "MIC50", "setting": "[2]; OD600, GraphPad Prism", "result": 12.7, "unit": "µM"},
      {"measurement": "MIC", "setting": "[3]; OD600", "result": "> 200", "unit": "µM"},
      {"measurement": "MIC50", "setting": "[3]; OD600, GraphPad Prism", "result": "> 200", "unit": "µM"},
      {"measurement": "hemolysis of cholesterol-depleted erythrocytes", "setting": "[4]", "result": "no hemolysis effect"},
      {"measurement": "hemolytic activity to infected erythrocytes", "setting": "[5]", "result": "did not"},
      {"measurement": "Normal (number of parasites)", "setting": "[6]; 40 µM An-cecB or 200 µM An-cecB-1, 30 or 60 min, total 20 (An-cecB), 22 (An-cecB-1)", "result": 7},
      {"measurement": "Disintegration (number of parasites)", "setting": "[6]; [9]", "result": 0},
      {"measurement": "Parasite disoriented (number of parasites)", "setting": "[6]; [9]", "result": 0},
      {"measurement": "Parasite membrane dissolution (number of parasites)", "setting": "[6]; [9]", "result": 2},
      {"measurement": "Parasite shrunken (number of parasites)", "setting": "[6]; [9]", "result": 15},
      {"measurement": "Vacuole formation (number of parasites)", "setting": "[6]; [9]", "result": 7},
      {"measurement": "Inhibition (%) of P. berghei growth", "setting": "[7]; 10 mg/kg daily i.p. for 4 consecutive days", "result": 17.03, "unit": "%"},
      {"measurement": "Inhibition (%) of P. berghei growth", "setting": "[7]; 25 mg/kg daily i.p. for 4 consecutive days", "result": 39.35, "unit": "%"},
      {"measurement": "Inhibition (%) of P. berghei growth", "setting": "[7]; 50 mg/kg daily i.p. for 4 consecutive days", "result": 54.19, "unit": "%"},
      {"measurement": "cytotoxicity to HEK293T cells", "setting": "HEK293T cells", "result": "No cytotoxicity"}
    ]},
    {"substance": "GKRLEKLGRNVFRAAKK-NH2 [An-cecB-3]", "values": [
      {"measurement": "inhibition rate", "setting": "[1]; [8]", "result": 24.74, "unit": "%"},
      {"measurement": "cytotoxicity to HEK293T cells", "setting": "HEK293T cells", "result": "No cytotoxicity"}
    ]},
    {"substance": "GRLKKLGKKIEGAGKRVFKAA EKALPVVAGVKAL-NH2 [An-cecA]", "values": [
      {"measurement": "inhibition rate", "setting": "[1]; [10]", "result": 18.7, "unit": "%"}
    ]},
    {"substance": "RAAKKALPVIAGYKAL-NH2 [An-cecB-2]", "values": [
      {"measurement": "inhibition rate", "setting": "[1]; [8]", "result": 12.14, "unit": "%"},
      {"measurement": "cytotoxicity to HEK293T cells", "setting": "HEK293T cells", "result": "No cytotoxicity"}
    ]},
    {"substance": "RRFKKFLKKVEGAGRRVANAA QKGLPLAAGVKGL-NH2 [An-cecC]", "values": [
      {"measurement": "inhibition rate", "setting": "[1]; [10]", "result": 40.16, "unit": "%"}
    ]}
  ]
}
